Assay results published in PubChem BioAssay (NCI).
Where “and” joins values, the source holds several entries; their conditions need not be identical. Equal entries are not always repeated.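 Test compounds were applied to cells in 96-well plates for 48 hours at 5 doses. GI50 is the concentration that inhibits growth by half. TGI is the concentration that stops growth completely.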

Tests used:
Experiment in all cases: NCI tumour cell line growth inhibition, 48 h
KM20L2 colon = test system: KM20L2 colon
SF-268 CNS = test system: SF-268 CNS
UACC-257 melanoma = test system: UACC-257 melanoma
SK-MEL-5 melanoma = test system: SK-MEL-5 melanoma
CAKI-1 renal = test system: CAKI-1 renal
K-562 leukemia = test system: K-562 leukemia
NCI-H23 lung = test system: NCI-H23 lung
OVCAR-8 ovarian = test system: OVCAR-8 ovarian
OVCAR-3 ovarian = test system: OVCAR-3 ovarian
XF 498 CNS = test system: XF 498 CNS
HL-60(TB) leukemia = test system: HL-60(TB) leukemia
RXF-631 renal = test system: RXF-631 renal
SK-MEL-2 melanoma = test system: SK-MEL-2 melanoma
NCI-H522 lung = test system: NCI-H522 lung
RPMI-8226 leukemia = test system: RPMI-8226 leukemia
786-0 renal = test system: 786-0 renal
HT29 colon = test system: HT29 colon
DLD-1 colon = test system: DLD-1 colon
SF-295 CNS = test system: SF-295 CNS
SNB-19 CNS = test system: SNB-19 CNS
COLO 205 colon = test system: COLO 205 colon
CCRF-CEM leukemia = test system: CCRF-CEM leukemia
KM12 colon = test system: KM12 colon
HOP-18 NSCLC = test system: HOP-18 NSCLC
HCT-15 colon = test system: HCT-15 colon
SNB-75 CNS = test system: SNB-75 CNS
EKVX NSCLC = test system: EKVX NSCLC
SK-OV-3 ovarian = test system: SK-OV-3 ovarian
OVCAR-4 ovarian = test system: OVCAR-4 ovarian
M19-MEL melanoma = test system: M19-MEL melanoma
SF-539 CNS = test system: SF-539 CNS
A549 NSCLC = test system: A549 NSCLC
HCT-116 colon = test system: HCT-116 colon
UO-31 renal = test system: UO-31 renal
SW-620 colon = test system: SW-620 colon
SN12C renal = test system: SN12C renal
SNB-78 CNS = test system: SNB-78 CNS
SR leukemia = test system: SR leukemia
RXF 393 renal = test system: RXF 393 renal
LOX IMVI melanoma = test system: LOX IMVI melanoma
UACC-62 melanoma = test system: UACC-62 melanoma
M14 melanoma = test system: M14 melanoma
TK-10 renal = test system: TK-10 renal
A498 renal = test system: A498 renal
LXFL 529 NSCLC = test system: LXFL 529 NSCLC
HOP-62 NSCLC = test system: HOP-62 NSCLC
DMS 273 small cell lung = test system: DMS 273 small cell lung
NCI-H460 lung = test system: NCI-H460 lung
OVCAR-5 ovarian = test system: OVCAR-5 ovarian
HCC-2998 colon = test system: HCC-2998 colon
SK-MEL-28 melanoma = test system: SK-MEL-28 melanoma
ACHN renal = test system: ACHN renal
MOLT-4 leukemia = test system: MOLT-4 leukemia
NCI-H226 lung = test system: NCI-H226 lung
IGROV1 ovarian = test system: IGROV1 ovarian
DMS 114 small cell lung = test system: DMS 114 small cell lung
U251 CNS = test system: U251 CNS
HOP-92 NSCLC = test system: HOP-92 NSCLC
MALME-3M melanoma = test system: MALME-3M melanoma

CCOc1ccccc1NC(=O)C(C#N)C1=C(Cl)C(=O)c2ccccc2C1=O (stereo unspecified)
GI50 (KM20L2 colon): 17.7 µM
TGI (SF-268 CNS): 4.79 µM
GI50 (UACC-257 melanoma): 2.22 µM
TGI (UACC-257 melanoma): 2.25 µM and 6.7 µM
TGI (SK-MEL-5 melanoma): 2.86 µM and 3.13 µM
GI50 (CAKI-1 renal): 1.81 µM
TGI (CAKI-1 renal): 5 µM and 3.29 µM
GI50 (K-562 leukemia): 2.93 µM
TGI (NCI-H23 lung): 3.99 µM and 6.17 µM
GI50 (OVCAR-8 ovarian): 1.92 µM
TGI (OVCAR-8 ovarian): 2.06 µM and 4.59 µM
GI50 (OVCAR-3 ovarian): 2 µM
TGI (OVCAR-3 ovarian): 2.97 µM and 5.04 µM
GI50 (XF 498 CNS): 1.83 µM
TGI (XF 498 CNS): 3.75 µM and 3.24 µM
GI50 (HL-60(TB) leukemia): 2.85 µM
GI50 (RXF-631 renal): 6.8 µM
TGI (RXF-631 renal): 4.03 µM and 26.2 µM
TGI (SK-MEL-2 melanoma): 3.05 µM and 3.12 µM
TGI (NCI-H522 lung): 4.22 µM
GI50 (RPMI-8226 leukemia): 3.34 µM
GI50 (786-0 renal): 0.899 µM
TGI (786-0 renal): 3.18 µM and 2.19 µM
GI50 (HT29 colon): 14 µM
GI50 (DLD-1 colon): 2.14 µM
TGI (DLD-1 colon): 3.31 µM and 4.27 µM
TGI (SF-295 CNS): 3.13 µM and 3.19 µM
GI50 (SNB-19 CNS): 3.07 µM
TGI (SNB-19 CNS): 3.6 µM and 10.2 µM
GI50 (COLO 205 colon): 12.6 µM
TGI (COLO 205 colon): 3.43 µM and 27.9 µM
GI50 (CCRF-CEM leukemia): 3.15 µM
GI50 (KM12 colon): 2.13 µM
TGI (KM12 colon): 3.23 µM and 4.59 µM
TGI (HOP-18 NSCLC): 2.85 µM
TGI (HCT-15 colon): 2.94 µM
GI50 (SNB-75 CNS): 1.68 µM
TGI (SNB-75 CNS): 3.94 µM and 3.09 µM
GI50 (EKVX NSCLC): 2.86 µM
TGI (EKVX NSCLC): 2.83 µM and 5.82 µM
TGI (SK-OV-3 ovarian): 41.5 µM
GI50 (OVCAR-4 ovarian): 1.67 µM
TGI (OVCAR-4 ovarian): 3.42 µM and 3.04 µM
GI50 (M19-MEL melanoma): 0.303 µM
TGI (M19-MEL melanoma): 0.351 µM and 0.872 µM
TGI (SF-539 CNS): 3.64 µM and 3.54 µM
TGI (A549 NSCLC): 3.74 µM
TGI (HCT-116 colon): 3.38 µM and 3.93 µM
GI50 (UO-31 renal): 1.51 µM
TGI (UO-31 renal): 3.1 µM and 2.86 µM
GI50 (SW-620 colon): 2.81 µM
TGI (SW-620 colon): 3.45 µM and 6.68 µM
TGI (SN12C renal): 3.19 µM and 3.53 µM
GI50 (SNB-78 CNS): 2.03 µM
TGI (SNB-78 CNS): 4.42 µM
TGI (SR leukemia): 3.73 µM
TGI (RXF 393 renal): 3.43 µM and 3.25 µM
GI50 (LOX IMVI melanoma): 1.38 µM
TGI (LOX IMVI melanoma): 2.08 µM and 3.28 µM
TGI (UACC-62 melanoma): 3.24 µM and 3.36 µM
TGI (M14 melanoma): 3.05 µM and 3.14 µM
GI50 (TK-10 renal): 12.3 µM
TGI (TK-10 renal): 3.84 µM and 25.8 µM
TGI (A498 renal): 36.5 µM
TGI (LXFL 529 NSCLC): 3.25 µM and 3.16 µM
TGI (HOP-62 NSCLC): 19.7 µM
TGI (DMS 273 small cell lung): 3.35 µM and 3.47 µM
GI50 (NCI-H460 lung): 3.45 µM
TGI (NCI-H460 lung): 3.27 µM and 15.1 µM
TGI (OVCAR-5 ovarian): 3.57 µM and 3.55 µM
GI50 (HCC-2998 colon): 12.3 µM
TGI (HCC-2998 colon): 3.15 µM and 25.6 µM
TGI (SK-MEL-28 melanoma): 3.62 µM
TGI (ACHN renal): 3.26 µM and 3.52 µM
TGI (MOLT-4 leukemia): 3.32 µM
TGI (NCI-H226 lung): 4.49 µM and 19 µM
TGI (IGROV1 ovarian): 5.31 µM
GI50 (DMS 114 small cell lung): 1.66 µM
TGI (DMS 114 small cell lung): 2.16 µM and 3.85 µM
GI50 (U251 CNS): 1.95 µM
TGI (U251 CNS): 3.14 µM and 3.82 µM
GI50 (HOP-92 NSCLC): 1.4 µM
TGI (HOP-92 NSCLC): 3.65 µM and 3.19 µM
TGI (MALME-3M melanoma): 2.91 µM and 3.08 µM

COc1cc(C(=O)C/C(CCC(=O)Nc2ccc(Cl)cc2Cl)=N/NC(=O)C(=O)NN)ccc1O
TGI (KM20L2 colon): > 100 µM
TGI (SF-268 CNS): > 100 µM
TGI (UACC-257 melanoma): > 100 µM
TGI (SK-MEL-5 melanoma): > 100 µM
TGI (CAKI-1 renal): > 100 µM
TGI (K-562 leukemia): > 100 µM
TGI (NCI-H23 lung): > 100 µM
TGI (OVCAR-8 ovarian): > 100 µM
TGI (OVCAR-3 ovarian): > 100 µM
TGI (XF 498 CNS): > 100 µM
TGI (HL-60(TB) leukemia): > 100 µM
TGI (RXF-631 renal): > 100 µM
TGI (NCI-H522 lung): > 100 µM
TGI (786-0 renal): > 100 µM
TGI (HT29 colon): > 100 µM
TGI (DLD-1 colon): > 100 µM
TGI (SF-295 CNS): > 100 µM
TGI (SNB-19 CNS): > 100 µM
TGI (COLO 205 colon): > 100 µM
TGI (CCRF-CEM leukemia): > 100 µM
TGI (KM12 colon): > 100 µM
TGI (HOP-18 NSCLC): > 100 µM
TGI (HCT-15 colon): > 100 µM
TGI (SNB-75 CNS): > 100 µM
TGI (EKVX NSCLC): > 100 µM
TGI (SK-OV-3 ovarian): > 100 µM
TGI (OVCAR-4 ovarian): > 100 µM
TGI (M19-MEL melanoma): > 100 µM
TGI (SF-539 CNS): > 100 µM
TGI (A549 NSCLC): > 100 µM
TGI (HCT-116 colon): > 100 µM
TGI (UO-31 renal): > 100 µM
TGI (SW-620 colon): > 100 µM
TGI (SN12C renal): > 100 µM
TGI (RXF 393 renal): > 100 µM
TGI (LOX IMVI melanoma): > 100 µM
TGI (UACC-62 melanoma): > 100 µM
TGI (M14 melanoma): > 100 µM
TGI (TK-10 renal): > 100 µM
TGI (A498 renal): > 100 µM
TGI (LXFL 529 NSCLC): > 100 µM
TGI (HOP-62 NSCLC): > 100 µM
TGI (NCI-H460 lung): > 100 µM
TGI (OVCAR-5 ovarian): > 100 µM
TGI (HCC-2998 colon): > 100 µM
TGI (SK-MEL-28 melanoma): > 100 µM
TGI (ACHN renal): > 100 µM
TGI (NCI-H226 lung): > 100 µM
TGI (IGROV1 ovarian): > 100 µM
TGI (DMS 114 small cell lung): > 100 µM
TGI (U251 CNS): > 100 µM
TGI (HOP-92 NSCLC): > 100 µM
TGI (MALME-3M melanoma): > 100 µM

O=C(O)CSc1n[nH]c(Cc2ccccc2)n1
TGI (SF-268 CNS): > 100 µM
TGI (UACC-257 melanoma): > 100 µM
TGI (SK-MEL-5 melanoma): > 100 µM
TGI (CAKI-1 renal): > 100 µM
TGI (K-562 leukemia): > 100 µM
TGI (NCI-H23 lung): > 100 µM
TGI (OVCAR-8 ovarian): > 100 µM
TGI (OVCAR-3 ovarian): > 100 µM
TGI (XF 498 CNS): > 100 µM
TGI (HL-60(TB) leukemia): > 100 µM
TGI (RXF-631 renal): > 100 µM
TGI (SK-MEL-2 melanoma): > 100 µM
TGI (NCI-H522 lung): > 100 µM
TGI (RPMI-8226 leukemia): > 100 µM
TGI (786-0 renal): > 100 µM
TGI (HT29 colon): > 100 µM
TGI (DLD-1 colon): > 100 µM
TGI (SF-295 CNS): > 100 µM
TGI (SNB-19 CNS): > 100 µM
TGI (CCRF-CEM leukemia): > 100 µM
TGI (KM12 colon): > 100 µM
TGI (HOP-18 NSCLC): > 100 µM
TGI (HCT-15 colon): > 100 µM
TGI (EKVX NSCLC): > 100 µM
TGI (SK-OV-3 ovarian): > 100 µM
TGI (OVCAR-4 ovarian): > 100 µM
TGI (M19-MEL melanoma): > 100 µM
TGI (SF-539 CNS): > 100 µM
TGI (A549 NSCLC): > 100 µM
TGI (HCT-116 colon): > 100 µM
TGI (UO-31 renal): > 100 µM
TGI (SW-620 colon): > 100 µM
TGI (SN12C renal): > 100 µM
TGI (SNB-78 CNS): > 100 µM
TGI (SR leukemia): > 100 µM
TGI (RXF 393 renal): > 100 µM
TGI (LOX IMVI melanoma): > 100 µM
TGI (UACC-62 melanoma): > 100 µM
TGI (M14 melanoma): > 100 µM
TGI (TK-10 renal): > 100 µM
TGI (LXFL 529 NSCLC): > 100 µM
TGI (HOP-62 NSCLC): > 100 µM
TGI (NCI-H460 lung): > 100 µM
TGI (OVCAR-5 ovarian): > 100 µM
TGI (HCC-2998 colon): > 100 µM
TGI (SK-MEL-28 melanoma): > 100 µM
TGI (ACHN renal): > 100 µM
TGI (MOLT-4 leukemia): > 100 µM
TGI (NCI-H226 lung): > 100 µM
TGI (IGROV1 ovarian): > 100 µM
TGI (DMS 114 small cell lung): > 100 µM
TGI (U251 CNS): > 100 µM
TGI (HOP-92 NSCLC): > 100 µM
TGI (MALME-3M melanoma): > 100 µM
